# Experimental data published in PubChem BioAssay (NCI).
#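 All cell lines were grown in 96-well plates and treated with compound for 48 hours. GI50 = concentration required for 50% inhibition of growth. TGI: total growth inhibition.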
# Experiments:
# Test in all cases: DTP human tumour cell line panel, 48 h
# 786-0 renal = system: 786-0 renal
# A498 renal = system: A498 renal
# ACHN renal = system: ACHN renal
# BT-549 breast = system: BT-549 breast
# CAKI-1 renal = system: CAKI-1 renal
# CCRF-CEM leukemia = system: CCRF-CEM leukemia
# DU-145 prostate = system: DU-145 prostate
# EKVX NSCLC = system: EKVX NSCLC
# HCC-2998 colon = system: HCC-2998 colon
# HCT-15 colon = system: HCT-15 colon
# HL-60(TB) leukemia = system: HL-60(TB) leukemia
# HOP-92 NSCLC = system: HOP-92 NSCLC
# HS 578T breast = system: HS 578T breast
# IGROV1 ovarian = system: IGROV1 ovarian
# LOX IMVI melanoma = system: LOX IMVI melanoma
# M14 melanoma = system: M14 melanoma
# MALME-3M melanoma = system: MALME-3M melanoma
# MCF7 breast = system: MCF7 breast
# MDA-MB-231 breast = system: MDA-MB-231 breast
# MDA-MB-435 = system: MDA-MB-435
# NCI-H226 lung = system: NCI-H226 lung
# NCI-H460 lung = system: NCI-H460 lung
# NCI-H522 lung = system: NCI-H522 lung
# NCI/ADR-RES ovarian = system: NCI/ADR-RES ovarian
# OVCAR-3 ovarian = system: OVCAR-3 ovarian
# OVCAR-8 ovarian = system: OVCAR-8 ovarian
# PC-3 prostate = system: PC-3 prostate
# RPMI-8226 leukemia = system: RPMI-8226 leukemia
# RXF 393 renal = system: RXF 393 renal
# SF-268 CNS = system: SF-268 CNS
# SF-295 CNS = system: SF-295 CNS
# SK-MEL-2 melanoma = system: SK-MEL-2 melanoma
# SK-MEL-28 melanoma = system: SK-MEL-28 melanoma
# SK-MEL-5 melanoma = system: SK-MEL-5 melanoma
# SK-OV-3 ovarian = system: SK-OV-3 ovarian
# SN12C renal = system: SN12C renal
# SNB-19 CNS = system: SNB-19 CNS
# SNB-75 CNS = system: SNB-75 CNS
# SW-620 colon = system: SW-620 colon
# T-47D breast = system: T-47D breast
# TK-10 renal = system: TK-10 renal
# U251 CNS = system: U251 CNS
# UACC-257 melanoma = system: UACC-257 melanoma
# A549 NSCLC = system: A549 NSCLC
# COLO 205 colon = system: COLO 205 colon
# HCT-116 colon = system: HCT-116 colon
# HOP-62 NSCLC = system: HOP-62 NSCLC
# HT29 colon = system: HT29 colon
# K-562 leukemia = system: K-562 leukemia
# KM12 colon = system: KM12 colon
# MOLT-4 leukemia = system: MOLT-4 leukemia
# NCI-H23 lung = system: NCI-H23 lung
# OVCAR-4 ovarian = system: OVCAR-4 ovarian
# OVCAR-5 ovarian = system: OVCAR-5 ovarian
# SF-539 CNS = system: SF-539 CNS
# SR leukemia = system: SR leukemia
# UACC-62 melanoma = system: UACC-62 melanoma
# UO-31 renal = system: UO-31 renal
structure (smiles),measurement,setting,value
Cc1ccc(NC(=O)c2cc(/C=C/C(=O)NO)cc(C(F)(F)F)c2)cc1Nc1nccc(-c2cccnc2)n1,GI50,786-0 renal,2.41 µM
same,TGI,786-0 renal,5.31 µM
same,GI50,A498 renal,3.13 µM
same,TGI,A498 renal,6.65 µM
same,GI50,ACHN renal,3.12 µM
same,TGI,ACHN renal,> 100 µM
same,GI50,BT-549 breast,3.3 µM
same,TGI,BT-549 breast,8.5 µM
same,GI50,CAKI-1 renal,2.23 µM
same,TGI,CAKI-1 renal,5.14 µM
same,GI50,CCRF-CEM leukemia,0.559 µM
same,TGI,CCRF-CEM leukemia,> 100 µM
same,GI50,DU-145 prostate,2.04 µM
same,TGI,DU-145 prostate,6.63 µM
same,GI50,EKVX NSCLC,3.48 µM
same,TGI,EKVX NSCLC,> 100 µM
same,GI50,HCC-2998 colon,1.76 µM
same,TGI,HCC-2998 colon,3.56 µM
same,GI50,HCT-15 colon,3.34 µM
same,TGI,HCT-15 colon,> 100 µM
same,GI50,HL-60(TB) leukemia,1.08 µM
same,TGI,HL-60(TB) leukemia,3.73 µM
same,GI50,HOP-92 NSCLC,0.58 µM
same,TGI,HOP-92 NSCLC,2.71 µM
same,GI50,HS 578T breast,1.83 µM
same,TGI,HS 578T breast,6.35 µM
same,GI50,IGROV1 ovarian,1.74 µM
same,TGI,IGROV1 ovarian,4.36 µM
same,GI50,LOX IMVI melanoma,1.35 µM
same,TGI,LOX IMVI melanoma,3.02 µM
same,GI50,M14 melanoma,1.34 µM
same,TGI,M14 melanoma,3.71 µM
same,GI50,MALME-3M melanoma,0.58 µM
same,TGI,MALME-3M melanoma,3.24 µM
same,GI50,MCF7 breast,1.75 µM
same,TGI,MCF7 breast,5.85 µM
same,GI50,MDA-MB-231 breast,1.14 µM
same,TGI,MDA-MB-231 breast,4.51 µM
same,GI50,MDA-MB-435,1.53 µM
same,TGI,MDA-MB-435,4.24 µM
same,GI50,NCI-H226 lung,1.78 µM
same,TGI,NCI-H226 lung,5.09 µM
same,GI50,NCI-H460 lung,2 µM
same,TGI,NCI-H460 lung,12.3 µM
same,GI50,NCI-H522 lung,1.35 µM
same,TGI,NCI-H522 lung,3.19 µM
same,GI50,NCI/ADR-RES ovarian,44 µM
same,TGI,NCI/ADR-RES ovarian,> 100 µM
same,GI50,OVCAR-3 ovarian,1.52 µM
same,TGI,OVCAR-3 ovarian,4.21 µM
same,GI50,OVCAR-8 ovarian,1.44 µM
same,TGI,OVCAR-8 ovarian,4.68 µM
same,GI50,PC-3 prostate,3.02 µM
same,TGI,PC-3 prostate,> 100 µM
same,GI50,RPMI-8226 leukemia,2.11 µM
same,TGI,RPMI-8226 leukemia,8.76 µM
same,GI50,RXF 393 renal,1.66 µM
same,TGI,RXF 393 renal,3.65 µM
same,GI50,SF-268 CNS,2.35 µM
same,TGI,SF-268 CNS,5.7 µM
same,GI50,SF-295 CNS,1.77 µM
same,TGI,SF-295 CNS,3.43 µM
same,GI50,SK-MEL-2 melanoma,1.09 µM
same,TGI,SK-MEL-2 melanoma,3.32 µM
same,GI50,SK-MEL-28 melanoma,1.56 µM
same,TGI,SK-MEL-28 melanoma,5.27 µM
same,GI50,SK-MEL-5 melanoma,1.57 µM
same,TGI,SK-MEL-5 melanoma,3.01 µM
same,GI50,SK-OV-3 ovarian,1.83 µM
same,TGI,SK-OV-3 ovarian,3.78 µM
same,GI50,SN12C renal,2.54 µM
same,TGI,SN12C renal,> 100 µM
same,GI50,SNB-19 CNS,2.7 µM
same,TGI,SNB-19 CNS,7.62 µM
same,GI50,SNB-75 CNS,2.66 µM
same,TGI,SNB-75 CNS,5.83 µM
same,GI50,SW-620 colon,1.54 µM
same,TGI,SW-620 colon,5.66 µM
same,GI50,T-47D breast,1.41 µM
same,TGI,T-47D breast,5.8 µM
same,GI50,TK-10 renal,2.98 µM
same,TGI,TK-10 renal,6.91 µM
same,GI50,U251 CNS,1.49 µM
same,TGI,U251 CNS,3.03 µM
same,GI50,UACC-257 melanoma,1.32 µM
same,TGI,UACC-257 melanoma,2.8 µM
C#Cc1ccc(C(=O)NCc2ccc(/C=C/C(=O)c3nccn3C)cc2)cc1,GI50,786-0 renal,4.48 µM
same,TGI,786-0 renal,> 14.3 µM
same,GI50,A498 renal,2.12 µM
same,TGI,A498 renal,> 14.3 µM
same,GI50,A549 NSCLC,4.6 µM
same,TGI,A549 NSCLC,> 14.3 µM
same,GI50,ACHN renal,4.8 µM
same,TGI,ACHN renal,> 14.3 µM
same,GI50,BT-549 breast,4.06 µM
same,TGI,BT-549 breast,> 14.3 µM
same,GI50,CAKI-1 renal,5.97 µM
same,TGI,CAKI-1 renal,> 14.3 µM
same,GI50,CCRF-CEM leukemia,3.68 µM
same,TGI,CCRF-CEM leukemia,> 14.3 µM
same,GI50,COLO 205 colon,3.6 µM
same,TGI,COLO 205 colon,12.7 µM
same,GI50,DU-145 prostate,4.83 µM
same,TGI,DU-145 prostate,> 14.3 µM
same,GI50,EKVX NSCLC,5.22 µM
same,TGI,EKVX NSCLC,> 14.3 µM
same,GI50,HCC-2998 colon,3.32 µM
same,TGI,HCC-2998 colon,10.7 µM
same,GI50,HCT-116 colon,4.56 µM
same,TGI,HCT-116 colon,> 14.3 µM
same,GI50,HCT-15 colon,2.39 µM
same,TGI,HCT-15 colon,> 14.3 µM
same,GI50,HL-60(TB) leukemia,3.5 µM
same,TGI,HL-60(TB) leukemia,> 14.3 µM
same,GI50,HOP-62 NSCLC,4.33 µM
same,TGI,HOP-62 NSCLC,> 14.3 µM
same,GI50,HOP-92 NSCLC,3.77 µM
same,TGI,HOP-92 NSCLC,> 14.3 µM
same,GI50,HS 578T breast,4.75 µM
same,TGI,HS 578T breast,> 14.3 µM
same,GI50,HT29 colon,4.61 µM
same,TGI,HT29 colon,> 14.3 µM
same,GI50,IGROV1 ovarian,3.77 µM
same,TGI,IGROV1 ovarian,> 14.3 µM
same,GI50,K-562 leukemia,3.21 µM
same,TGI,K-562 leukemia,> 14.3 µM
same,GI50,KM12 colon,2.67 µM
same,TGI,KM12 colon,8.57 µM
same,GI50,LOX IMVI melanoma,0.543 µM
same,TGI,LOX IMVI melanoma,2.4 µM
same,GI50,M14 melanoma,7.91 µM
same,TGI,M14 melanoma,> 14.3 µM
same,GI50,MALME-3M melanoma,> 14.3 µM
same,TGI,MALME-3M melanoma,> 14.3 µM
same,GI50,MCF7 breast,2.7 µM
same,TGI,MCF7 breast,> 14.3 µM
same,GI50,MDA-MB-231 breast,3.97 µM
same,TGI,MDA-MB-231 breast,> 14.3 µM
same,GI50,MDA-MB-435,4.15 µM
same,TGI,MDA-MB-435,> 14.3 µM
same,GI50,MOLT-4 leukemia,4.2 µM
same,TGI,MOLT-4 leukemia,> 14.3 µM
same,GI50,NCI-H226 lung,5.03 µM
same,TGI,NCI-H226 lung,> 14.3 µM
same,GI50,NCI-H23 lung,3.48 µM
same,TGI,NCI-H23 lung,> 14.3 µM
same,GI50,NCI-H460 lung,3.24 µM
same,TGI,NCI-H460 lung,9.03 µM
same,GI50,NCI-H522 lung,6.16 µM
same,TGI,NCI-H522 lung,> 14.3 µM
same,GI50,NCI/ADR-RES ovarian,3.67 µM
same,TGI,NCI/ADR-RES ovarian,> 14.3 µM
same,GI50,OVCAR-4 ovarian,5.71 µM
same,TGI,OVCAR-4 ovarian,> 14.3 µM
same,GI50,OVCAR-5 ovarian,4.75 µM
same,TGI,OVCAR-5 ovarian,> 14.3 µM
same,GI50,OVCAR-8 ovarian,3.11 µM
same,TGI,OVCAR-8 ovarian,8.27 µM
same,GI50,PC-3 prostate,5.36 µM
same,TGI,PC-3 prostate,> 14.3 µM
same,GI50,RPMI-8226 leukemia,2.37 µM
same,TGI,RPMI-8226 leukemia,> 14.3 µM
same,GI50,RXF 393 renal,3.44 µM
same,TGI,RXF 393 renal,14.2 µM
same,GI50,SF-268 CNS,3.36 µM
same,TGI,SF-268 CNS,12.2 µM
same,GI50,SF-295 CNS,3.65 µM
same,TGI,SF-295 CNS,13.2 µM
same,GI50,SF-539 CNS,2.65 µM
same,TGI,SF-539 CNS,6.24 µM
same,GI50,SK-MEL-2 melanoma,> 14.3 µM
same,TGI,SK-MEL-2 melanoma,> 14.3 µM
same,GI50,SK-MEL-28 melanoma,6.16 µM
same,TGI,SK-MEL-28 melanoma,> 14.3 µM
same,GI50,SK-MEL-5 melanoma,> 14.3 µM
same,TGI,SK-MEL-5 melanoma,> 14.3 µM
same,GI50,SK-OV-3 ovarian,8.34 µM
same,TGI,SK-OV-3 ovarian,> 14.3 µM
same,GI50,SN12C renal,4.34 µM
same,TGI,SN12C renal,> 14.3 µM
same,GI50,SNB-19 CNS,3.1 µM
same,TGI,SNB-19 CNS,> 14.3 µM
same,GI50,SNB-75 CNS,2.19 µM
same,TGI,SNB-75 CNS,10.7 µM
same,GI50,SR leukemia,0.93 µM
same,TGI,SR leukemia,> 14.3 µM
same,GI50,SW-620 colon,4.31 µM
same,TGI,SW-620 colon,> 14.3 µM
same,GI50,T-47D breast,6 µM
same,TGI,T-47D breast,> 14.3 µM
same,GI50,TK-10 renal,5.42 µM
same,TGI,TK-10 renal,> 14.3 µM
same,GI50,U251 CNS,2.15 µM
same,TGI,U251 CNS,> 14.3 µM
same,GI50,UACC-257 melanoma,> 14.3 µM
same,TGI,UACC-257 melanoma,> 14.3 µM
same,GI50,UACC-62 melanoma,6.27 µM
same,TGI,UACC-62 melanoma,> 14.3 µM
same,GI50,UO-31 renal,3.91 µM
same,TGI,UO-31 renal,> 14.3 µM
